Here are results for 1 molecule from publication PMC8883573, “New Insights Into the Function of Flavohemoglobin in Mycobacterium tuberculosis: Role as a NADPH-Dependent Disulfide Reductase and D-Lactate-Dependent Mycothione Reductase” (Frontiers in Cellular and Infection Microbiology, 2022).

Molecules are shown by their SMILES.

The experiment has as its target T1, MtbFHb (Mycobacterium tuberculosis, UniProt Q7ARS9).
T1 construct: gene Rv0385

T1 sequence (Q7ARS9 entry or part of it): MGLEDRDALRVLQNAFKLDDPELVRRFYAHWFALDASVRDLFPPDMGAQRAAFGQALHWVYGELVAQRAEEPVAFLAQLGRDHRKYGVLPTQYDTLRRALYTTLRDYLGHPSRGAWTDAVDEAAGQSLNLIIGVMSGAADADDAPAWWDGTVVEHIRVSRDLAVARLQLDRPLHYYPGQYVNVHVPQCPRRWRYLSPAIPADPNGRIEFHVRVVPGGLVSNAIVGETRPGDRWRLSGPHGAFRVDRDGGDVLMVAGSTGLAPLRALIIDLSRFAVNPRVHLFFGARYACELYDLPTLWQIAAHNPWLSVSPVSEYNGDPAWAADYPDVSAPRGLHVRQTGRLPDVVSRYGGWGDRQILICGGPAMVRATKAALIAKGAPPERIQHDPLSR

For the molecule `C[C@@H](O)C(=O)O` [D-lactate], the “far-UV circular dichroism (conformational change)” value is given as “These results confirmed a conformational change in MtbFHb during its interaction with D-lactate”.
